The source of these data is patent US12617795B2, “Substituted 6,7-dihydro-5H-pyrrolo[3,4-d]pyrimidines, 5,7-dihydrofuro[3,4-d]pyrimidines, and pyrido[2,3-d]pyrimidines as KCC2 modulators” (Astrazeneca AB, priority 2020, dated 2026).

This experiment addresses T1, KCC2 (Homo sapiens, UniProt Q9H2X9).
T1 construct: expressed in transfected cells; host or cells: HEK293 cells electroporated (Maxcyte STX) with the pcDNA3.1 KCC2 plasmid
T1 sequence (Q9H2X9 1-1139): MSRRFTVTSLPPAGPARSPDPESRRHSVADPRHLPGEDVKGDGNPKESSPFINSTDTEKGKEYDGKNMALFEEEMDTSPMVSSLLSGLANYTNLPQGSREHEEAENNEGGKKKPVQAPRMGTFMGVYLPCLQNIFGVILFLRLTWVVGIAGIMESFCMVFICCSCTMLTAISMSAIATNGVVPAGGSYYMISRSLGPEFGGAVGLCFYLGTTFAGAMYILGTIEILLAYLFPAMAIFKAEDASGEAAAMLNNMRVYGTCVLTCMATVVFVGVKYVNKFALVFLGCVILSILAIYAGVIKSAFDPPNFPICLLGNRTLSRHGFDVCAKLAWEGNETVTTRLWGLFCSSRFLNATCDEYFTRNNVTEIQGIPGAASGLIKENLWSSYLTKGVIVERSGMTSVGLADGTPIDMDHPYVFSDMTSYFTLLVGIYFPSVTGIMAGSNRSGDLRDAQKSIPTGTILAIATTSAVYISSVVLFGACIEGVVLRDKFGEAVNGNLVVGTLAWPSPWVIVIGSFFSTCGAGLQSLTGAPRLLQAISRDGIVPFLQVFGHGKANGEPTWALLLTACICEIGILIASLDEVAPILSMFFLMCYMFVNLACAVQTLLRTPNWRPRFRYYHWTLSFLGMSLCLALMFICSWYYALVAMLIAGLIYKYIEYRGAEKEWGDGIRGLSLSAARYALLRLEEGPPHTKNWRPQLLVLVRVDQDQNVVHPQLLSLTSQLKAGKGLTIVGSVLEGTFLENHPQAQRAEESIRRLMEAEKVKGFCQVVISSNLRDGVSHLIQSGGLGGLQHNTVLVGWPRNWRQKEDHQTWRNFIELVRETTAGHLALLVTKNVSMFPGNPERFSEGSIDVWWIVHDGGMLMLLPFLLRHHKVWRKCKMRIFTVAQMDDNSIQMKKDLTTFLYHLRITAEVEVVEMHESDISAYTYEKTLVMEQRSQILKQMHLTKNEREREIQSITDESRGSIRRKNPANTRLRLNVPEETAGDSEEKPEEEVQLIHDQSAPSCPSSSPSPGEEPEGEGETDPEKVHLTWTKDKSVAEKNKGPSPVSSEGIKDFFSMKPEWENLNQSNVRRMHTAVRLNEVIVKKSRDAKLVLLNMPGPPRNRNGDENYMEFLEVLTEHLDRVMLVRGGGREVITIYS
Nature of the experiment: KCC2 thallium transport FLIPR-based assay (Tl+ influx in HEK293 cells expressing KCC2). It is filed as cell-based. As to conditions: 90 min compound incubation at RT, thallium flux at 120 s used to determine EC50. As for the experimental part:
A thallium transport FLIPR-based assay was used to measure the ability of compounds to activate KCC2. KCC2 activity is assessed by measuring KCC2-dependent Tl^+ influx in a KCC2-expressing cell. The assay protocol was based on those described by Delpire et al (Proc Natl Acad Sci USA. 2009 Mar. 31; 106(13): 5383-5388) and Zhang et al (Journal of Biomolecular Screening 15(2): 2010).
KCC2 was synthesised and codon optimised by GeneArt based on the Uniprot sequence Q9H2X9. The final sequence was subcloned into pcDNA3.1.
HEK293 cells were grown in 10 layer cell stacks at 37° C., 5% CO2, in DMEM, 10% fetal calf serum and 2 mM Glutamine. The cells were detached by removing the media and washing the cell stack with 100 ml of PBS. The PBS was removed and 100 ml of 1× TrypLE was added and the cell stack returned to 37° C. for 5 min. The detached cells were then counted in a Vi Cell counter and spun for 10 min at 1250 rpm in a Sorval Legend centrifuge. The cells were diluted down in Maxcyte electroporation buffer at 4× the final concentration and spun as before. The cell pellet was resuspended at 1×10^8/cells per ml and electroporated in a Maxcyte Cl 2.2 bag on a Maxcyte STX machine via the HEK293 programme with 200 ug/ml of plasmid DNA. The cells were then allowed to recover for 30 min before adding to 500 ml of PBS and then counted again on the Vi Cell. The cells were then frozen down in planer controlled rate freeze in 90% complete media, 10% DMSO.
All reagents were dispensed using a Mulitdrop Combi unless stated otherwise. All FluXOR Invitrogen propriety buffer compositions are mentioned in tables below.
HEK293 KCC2 cells were harvested at a density of 3.33×10^5 cells/mL in complete media (DMEM, Sigma, D6546, 10% fetal calf serum and 1% Glutamax) and 30 μL per well seeded into 384-well PDL coated black-clear plates (Corning, 354663). Leave cells at RT for 20 mins to settle before incubating for 48 h at 37° C., 5% CO2. Following incubation, perform three wash steps in HBSS (Sigma, H6648) using a Biotek cell washer with the final aspiration leaving 20 μL HBSS residual volume in each well. A further 20 μL per well of thallium loading dye is then added (1 h, RT, protect from light). 5 μL of test compounds (100 μM top concentration, 1:2 dilutions, 12 point curve) were added using the FLIPR TETRA and incubated at RT for 90 min in the dark. Following compound incubation, the thallium flux response is read on FLIPR TETRA (ex. 515-575 nm) which is initiated by FLIRR TETRA dispensing 5 μL stimulus buffer into each well. Recordings are measured every 1 second for 120 seconds. Thallium flux at 120 s used to determine EC50.
Compound buffer: Assay buffer with 1 μL of bumetanide per 10 ml.
As usually defined, the EC50 is the concentration at which the effect is half-maximal. A lower EC50 goes with a more potent agent. For `CCN1Cc2c(Nc3ccc(C4CCCCC4)cc3)nc(N3CCO[C@H](C)C3)nc2C1=O` [Example 68, 4-[(4-cyclohexylphenyl)amino]-6-ethyl-2-[(2R)-2-methylmorpholin-4-yl]-5,6-dihydro-7H-pyrrolo[3,4-d]pyrimidin-7-one], it took 1.94 µM to reach a half-maximal effect (EC50). Take `C[C@@H]1CN(c2nc(Nc3ccc(C4CCCCC4)cc3)c3cc(C(N)=O)cnc3n2)CCO1` [Example 104, (R)-4-((4-cyclohexylphenyl)amino)-2-(2-methylmorpholino)pyrido[2,3-d]pyrimidine-6-carboxamide]: the midpoint of the response, the EC50, lay at 1.63 µM. The compound `CC(C)N1Cc2c(Nc3ccc(OCc4ccccc4)cc3)nc(N3CCO[C@H](C)C3)nc2C1=O` [Example 57, 4-[(4-(benzyloxy)phenyl]amino}-2-[(2R)-2-methylmorpholin-4-yl]-6-(propan-2-yl)-5,6-dihydro-7H-pyrrolo[3,4-d]pyrimidin-7-one] yielded an EC50 of 3.6 µM. The compound `CC1CN(c2nc(Nc3ccc(C4CCCCC4)cc3)c3c(n2)C(=O)N(C(C)C)C3)CCO1` (stereo not shown) [Example 12, 4-[(4-cyclohexylphenyl)amino]-2-(2-methylmorpholin-4-yl)-6-(propan-2-yl)-5,6-dihydro-7H-pyrrolo[3,4-d]pyrimidin-7-one] returned a concentration giving a half-maximal response (EC50) of 1.35 µM. As for `CCN1Cc2c(Nc3ccc(C(C)C)cc3)nc(N3CCO[C@H](C)C3)nc2C1=O` [Example 67, 6-ethyl-2-[(2R)-2-methylmorpholin-4-yl]-4-{[4-(propan-2-yl)phenyl]amino}-5,6-dihydro-7H-pyrrolo[3,4-d]pyrimidin-7-one], a half-maximal effect (EC50) was put at 4.07 µM. Consider `Cc1cc(-c2nc(Nc3ccc(C4CCCCC4)cc3)c3c(n2)C(=O)N(C(C)C)C3)ccn1` [Example 44, 4-[(4-cyclohexylphenyl)amino]-2-(2-methylpyridin-4-yl)-6-(propan-2-yl)-5,6-dihydro-7H-pyrrolo[3,4-d]pyrimidin-7-one], for which the EC50 stood at 0.901 µM. The compound `CC(C)N1Cc2c(Nc3ccc(C(F)(F)C(F)(F)F)cc3)nc(N3CCOCC3)nc2C1=O` [Example 83, 2-(morpholin-4-yl)-4-{[4-(pentafluoroethyl)phenyl]amino}-6-(propan-2-yl)-5,6-dihydro-7H-pyrrolo[3,4-d]pyrimidin-7-one] came in with an EC50 of 3.88 µM. Take `C#CCCC1(CCOc2ccc(-c3ccc(Nc4nc(C5=CCOCC5)nc5c4CN(C(C)C)C5=O)cc3)cc2)N=N1` [Example 81, 4-((4′-(2-(3-(but-3-yn-1-yl)-3H-diazirin-3-yl)ethoxy)-[1,1′-biphenyl]-4-yl)amino)-2-(3,6-dihydro-2H-pyran-4-yl)-6-isopropyl-5,6-dihydro-7H-pyrrolo[3,4-d]pyrimidin-7-one]: the EC50 was found to be 2.47 µM. As for `C[C@@H]1CN(c2nc(Nc3ccc(C4CCCCC4)cc3)c3ccc[n+]([O-])c3n2)CCO1` [Example 99, (R)-4-((4-cyclohexylphenyl)amino)-2-(2-methylmorpholino)pyrido [2,3-d]pyrimidine 8-oxide], the concentration giving a half-maximal response (EC50) turned out to be 3.79 µM. In turn, `CC(C)N1Cc2c(Nc3ccc(C4CCCCC4)cc3)nc(N3CCO[C@H](CNC(=O)OC(C)(C)C)C3)nc2C1=O` [Example 17, tert-butyl {[(2R)-4-{4-[(4-cyclohexylphenyl)amino]-7-oxo-6-(propan-2-yl)-6,7-dihydro-5H-pyrrolo[3,4-d]pyrimidin-2-yl}morpholin-2-yl]methyl}carbamate] displayed a concentration giving a half-maximal response (EC50) of 1.09 µM. For `CC(=O)NCCC1CN(c2nc(Nc3ccc(C4CCCCC4)cc3)c3c(n2)C(=O)N(C(C)C)C3)CCO1` (stereo not shown) [Example 39, N-[2-(4-{4-[(4-cyclohexylphenyl)amino]-7-oxo-6-(propan-2-yl)-6,7-dihydro-5H-pyrrolo[3,4-d]pyrimidin-2-yl}morpholin-2-yl)ethyl]acetamide], the EC50 was 9.9 µM. Under `CCN(CC)c1nc(Nc2ccc(C3CCCCC3)cc2)c2c(n1)C(=O)N(C(C)C)C2` [Example 34, 4-[(4-cyclohexylphenyl)amino]-2-(diethylamino)-6-(propan-2-yl)-5,6-dihydro-7H-pyrrolo[3,4-d]pyrimidin-7-one] stands 5.21 µM; under `CCN(CC)c1nc(Nc2ccc(C(C)C)cc2)c2c(n1)C(=O)N(C(C)C)C2` [Example 1, 2-(Diethylamino)-6-isopropyl-4-((4-isopropylphenyl)amino)-5,6-dihydro-7H-pyrrolo[3,4-d]pyrimidin-7-one], 1.71 µM.

The compound `CCCc1ccc(Nc2nc(N3CCO[C@H](C)C3)nc3c2CN(C(C)C)C3=O)cc1` [Example 60, 2-[(2R)-2-methylmorpholin-4-yl]-6-(propan-2-yl)-4-[(4-propylphenyl)amino]-5,6-dihydro-7H-pyrrolo[3,4-d]pyrimidin-7-one] returned an EC50 of 4.82 µM. In turn, `CC(C)N1Cc2c(Nc3ccc(C4CCCCC4)cc3)nc(N3CCOC(CC(F)(F)F)C3)nc2C1=O` (stereo not shown) [Example 16, 4-[(4-cyclohexylphenyl)amino]-6-(propan-2-yl)-2-[2-(2,2,2-trifluoroethyl)morpholin-4-yl]-5,6-dihydro-7H-pyrrolo[3,4-d]pyrimidin-7-one] displayed an EC50 of 0.749 µM. Compound `CCCCCc1ccc(Nc2nc(N3CCO[C@H](C)C3)nc3c2CN(C(C)C)C3=O)cc1` [Example 55, 2-[(2R)-2-methylmorpholin-4-yl]-4-[(4-pentylphenyl)amino]-6-(propan-2-yl)-5,6-dihydro-7H-pyrrolo[3,4-d]pyrimidin-7-one] yielded a half-maximal effective concentration (EC50) of 2.3 µM. Compound `CC(C)N1Cc2c(Nc3ccc(-c4ccc(Cl)c(Cl)c4)cc3)nc(N3CCOCC3)nc2C1=O` [Example 85, 4-[(3′,4′-dichloro[1,1′-biphenyl]-4-yl)amino]-2-(morpholin-4-yl)-6-(propan-2-yl)-5,6-dihydro-7H-pyrrolo[3,4-d]pyrimidin-7-one] showed an EC50 of 8.41 µM.

In turn, `CC(C)N1Cc2c(Nc3ccc(C4CCCCC4)cc3)nc(N3CCOC(C4CC4)C3)nc2C1=O` (stereo not shown) [Example 2, 4-((4-cyclohexylphenyl)amino)-2-(2-cyclopropylmorpholino)-6-isopropyl-5,6-dihydro-7H-pyrrolo[3,4-d]pyrimidin-7-one] came in with a half-maximal effective concentration (EC50) of 0.672 µM. `C#CCCCCCOc1ccc(-c2ccc(Nc3nc(N4CCOC(C5CC5)C4)nc4c3CN(C(C)C)C4=O)cc2)cc1` (stereo not shown) [Example 52, 2-(2-cyclopropylmorpholin-4-yl)-4-({4′-[(hept-6-yn-1-yl)oxy][1,1′-biphenyl]-4-yl}amino)-6-(propan-2-yl)-5,6-dihydro-7H-pyrrolo[3,4-d]pyrimidin-7-one]: a half-maximal response (EC50) required 0.146 µM.
